Test results published in patent US20240090503A1, “FUNGICIDAL OXADIAZOLES AND THEIR MIXTURES” (FMC CORPORATION, priority 2020, published 2024).
Marks after values point to notes of the source that are not given here.

Experiments:
Type in all cases: in vivo
[1] = tested on: Phakopsora pachyrhizi (the causal agent of Asian soybean rust); assay: Test A: preventive spray on soybean seedlings, Asian soybean rust, visual disease rating; conditions: soybean seedlings, 100 = 100% disease control, 0 = no control
Outline: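 Compound in acetone/water (50/50) with 250 ppm PEG400 sprayed to run-off on soybean seedlings; inoculated next day with Phakopsora pachyrhizi spores. Held 24 h at 22° C in saturated atmosphere, then 8 days in a 22° C growth chamber before visual rating as % disease control relative to controls.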

[2] = tested on: Puccinia recondita f. sp. tritici (the causal agent of wheat leaf rust); assay: Test C: preventive spray on wheat seedlings, wheat leaf rust, visual disease rating; conditions: wheat seedlings, 100 = 100% disease control, 0 = no control
Outline: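 Wheat seedlings sprayed to run-off with compound in acetone/water (50/50) with 250 ppm PEG400, then inoculated with spores the following day. After 24 h saturated humidity at 20° C. and 6 days in growth chamber at 20° C., disease rated visually as % control relative to untreated controls.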

[3] = tested on: Zymoseptoria tritici (the causal agent of wheat leaf blotch); assay: Test B: preventive spray on wheat seedlings, wheat leaf blotch, visual disease rating; conditions: wheat seedlings, 100 = 100% disease control
Outline: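 This is a preventive test: spray application preceded Zymoseptoria tritici spore inoculation by one day. Test suspensions were in acetone/water with 250 ppm PEG400 surfactant, at the listed ppm rate. After 48 h saturated humidity at 24° C and 17 days at 20° C, visual ratings scored control from 0 to 100%.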

SMILES	Test A disease control rating ([1]; 10 ppm test suspension) [%]	Test C disease control rating ([2]; 10 ppm test suspension) [%]	Test B disease control rating ([3]; 250 ppm test suspension)	further results
N#CCNC(=O)c1csc(Cc2ccc(-c3noc(C(F)(F)F)n3)cc2)n1 [compound 393]	100	100	94* %	–
O=C(NC1CCC(F)(F)CC1)c1coc(Cc2ccc(-c3noc(C(F)(F)F)n3)cc2)n1 [compound 395]	95	97	0* %	–
O=C(NCCn1cccn1)c1csc(Cc2ccc(-c3noc(C(F)(F)F)n3)cc2)n1 [compound 396]	100	100	28* %	–
O=C(NCCC(F)(F)F)c1csc(Cc2ccc(-c3noc(C(F)(F)F)n3)cc2)n1 [compound 397]	100	98	82* %	–
O=C(NCCCC(F)(F)F)c1coc(Cc2ccc(-c3noc(C(F)(F)F)n3)cc2)n1 [compound 398]	100	97	80* %	–
O=C(NCC=C(Cl)Cl)c1coc(Cc2ccc(-c3noc(C(F)(F)F)n3)cc2)n1 [compound 399]	100	99	10* %	–
CCOC(=O)c1csc(COc2ccc(-c3noc(C(F)(F)F)n3)cc2)n1 [compound 404]	0	68	0* %	–
O=C(c1ccc(Cc2ccc(-c3noc(C(F)(F)F)n3)cc2)o1)C(F)(F)F [compound 450]	94	0	41* %	–
FC(F)(F)c1nc(-c2ccc(Cc3ccccc3)cc2)no1 [compound 451]	99	0	8* %	–
COC(=O)c1cnc(Oc2ccc(-c3noc(C(F)(F)F)n3)cc2)s1 [compound 452]	81	0	59* %	–
CCOC(=O)c1ccc(Cc2ccc(-c3noc(C(F)(F)F)n3)cc2)cc1 [compound 453]	92	0	50* %	–
COC(=O)c1coc(Cc2ccc(-c3noc(C(F)(F)F)n3)cc2)c1 [compound 456]	100	68	65* %	–
CCOC(=O)c1cnn(CN2CCC(c3noc(C(F)(F)F)n3)CC2)c1 [compound 458]	–	–	0* %	Test A disease control rating ([1]; 50 ppm test suspension): 0%; Test C disease control rating ([2]; 50 ppm test suspension): 0%
CCOC(=O)c1cnn(CCN2CCC(c3noc(C(F)(F)F)n3)CC2)c1 [compound 459]	–	–	0* %	Test A disease control rating ([1]; 50 ppm test suspension): 0%; Test C disease control rating ([2]; 50 ppm test suspension): 0%
COCCNC(=O)c1coc(COc2ccc(-c3noc(C(F)(F)F)n3)cc2)n1 [compound 464]	79	23	94* %	–
O=C(NCC(F)(F)F)c1coc(COc2ccc(-c3noc(C(F)(F)F)n3)cc2)n1 [compound 465]	100	80	0* %	–
O=C(NCCn1cccn1)c1coc(COc2ccc(-c3noc(C(F)(F)F)n3)cc2)n1 [compound 466]	100	55	3* %	–

SMILES	Test A disease control rating ([1]; 10 ppm test suspension) [%]	Test C disease control rating ([2]; 10 ppm test suspension) [%]	Test B disease control rating ([3]; 250 ppm test suspension)	further results
O=C(NCCC(F)(F)F)c1coc(COc2ccc(-c3noc(C(F)(F)F)n3)cc2)n1 [compound 467]	97	68	6* %	–
N#CCNC(=O)c1coc(COc2ccc(-c3noc(C(F)(F)F)n3)cc2)n1 [compound 468]	84	0	22* %	–
COCCNC(=O)c1csc(COc2ccc(-c3noc(C(F)(F)F)n3)cc2)n1 [compound 469]	96	86	65* %	–
O=C(NCC(F)(F)F)c1csc(COc2ccc(-c3noc(C(F)(F)F)n3)cc2)n1 [compound 470]	100	94	0* %	–
O=C(NCCn1cccn1)c1csc(COc2ccc(-c3noc(C(F)(F)F)n3)cc2)n1 [compound 471]	77	80	15* %	–
O=C(NCCC(F)(F)F)c1csc(COc2ccc(-c3noc(C(F)(F)F)n3)cc2)n1 [compound 472]	77	0	22* %	–
N#CCNC(=O)c1csc(COc2ccc(-c3noc(C(F)(F)F)n3)cc2)n1 [compound 473]	94	89	28* %	–
O=C(c1csc(Cc2ccc(-c3noc(C(F)(F)F)n3)cc2)n1)N1CCOCC1 [compound 487]	100	100	–	Test B disease control rating ([3]; 100 ppm test suspension (double asterisk)): 98** %
CCNC(=O)c1csc(Cc2ccc(-c3noc(C(F)(F)F)n3)cc2)n1 [compound 488]	100	100	99* %	–
COCC(COC)NC(=O)c1csc(Cc2ccc(-c3noc(C(F)(F)F)n3)cc2)n1 [compound 489]	100	99	92* %	–
CON=C(CCl)COC(=O)c1cnn(Cc2ccc(-c3noc(C(F)(F)F)n3)cc2)c1 [compound 494]	100	0	47* %	–
O=C(CCl)COC(=O)c1cnn(Cc2ccc(-c3noc(C(F)(F)F)n3)cc2)c1 [compound 495]	100	0	43* %	–
CC1(C)OCC(COC(=O)c2cnn(Cc3ccc(-c4noc(C(F)(F)F)n4)cc3)c2)O1 (stereo not drawn) [compound 496]	100	0	48* %	–
OC(c1ccc(-c2noc(C(F)(F)F)n2)cc1)c1cccc(F)c1 (stereo not drawn) [compound 498]	100	0	43* %	–
OC(c1ccc(-c2noc(C(F)(F)F)n2)cc1)c1cccc(Cl)c1 (stereo not drawn) [compound 499]	–	–	48* %	Test A disease control rating ([1]; 250 ppm test suspension): 100%; Test C disease control rating ([2]; 250 ppm test suspension): 100%
OC(c1ccc(F)cc1)c1ccc(-c2noc(C(F)(F)F)n2)cc1 (stereo not drawn) [compound 500]	–	–	5* %	Test A disease control rating ([1]; 250 ppm test suspension): 100%; Test C disease control rating ([2]; 250 ppm test suspension): 100%
CN(C)C(=O)C1=NOC(COc2cccc(-c3noc(C(F)(F)F)n3)c2)C1 (stereo not drawn) [compound 502]	–	–	–	pest or weed control at 250 ppm ([1]; Phakopsora pachyrhizi, 216 h, 250 ppm test suspension): 100%; pest or weed control at 250 ppm ([2]; Puccinia recondita, 168 h, 250 ppm test suspension): 100%; pest or weed control at 250 ppm ([3]; Zymoseptoria tritici, 456 h, 250 ppm test suspension): 62%
